Results from patent US10618869B2, “Oligo-benzamide compounds and their use” (The Board of Regents of the University of Texas System, priority 2010, dated 2020).
Entries after “also recorded” stand apart in the source; their conditions may differ.

How the values were obtained:
[1] = Storage stability of D2 in DMSO; format: physicochemical; conditions: room temperature and −70° C., storage 60 days
[2] = system: DHT-regulated transcripts; test: DHT-regulated transcripts, Illumina platform, LNCaP cells; format: cell-based; conditions: of the 341 transcripts significantly upregulated by DHT
Protocol: FIG. 8. Effect of D2 on DHT-induced transcription: RNA from LNCaP cells untreated or treated with DHT in the absence and presence of D2 were evaluated by the Illumina platform for DHT-regulated transcripts. […] Expression levels of selected genes are shown in the right panel, including AR-regulated genes and those involved in cell proliferation.
FIG. 8 confirms these findings by QPCR experiment evaluating the effect of D1 and D2 on DHT-induced TMPRSS and PSA gene expression at the RNA level in LNCaP cells (bottom left panel) and by western blot analyses as evaluated by the effect of D1 and D2 on the expression of PSA, androgen receptor and actin in LAPC4 cells at the protein level. […] Confirmation of these findings were obtained by QPCR and western blot analyses.

[3] = system: PCa cell lines that contain AR; test: DHT-induced proliferation of prostate cancer cells (MTT assay); format: cell-based
Protocol: FIGS. 10A-E. D2 blocks proliferation of prostate cancer cells in vitro and in vivo (a) Effect of pretreatment with 100 nM of D1 and D2 on DHT-induced proliferation in multiple prostate cancer cell lines in MTT assay. Numbers are normalized to a baseline of 100, which represents the untreated rate of proliferation. (b) Effect of pretreatment with 100 nM of D1 and D2 on DHT-induced proliferation in LNCaPcells on a Cyquant assay. (c) Dose dependent curve of D2 on proliferation of LAPC4 cells. (d) Rescue of DHT induced proliferation by overexpression of PELP1 following suppression of DHT induced proliferation with 100 nM of D2. (e). Effect of direct intratumoral injections of D1 and D2 on the proliferation of prostate cancer xenografts in animal models: Following establishment of subcutaneous xenografts in animal models, daily direct intratumoral injections of D1 and D2 were performed. Bioluminesence imaging was used to track the growth of the tumors and the effect of D1 and D2 quantitated as shown in the graph.
The importance of PELP1 and AR interaction on DHT-mediated proliferation of prostate cancer cells were confirmed using rescue experiments, where D2 suppression of DHT-mediated proliferation was overcome by overexpression of PELP1 in LNCaP PCa cells.
(§1) In this experiment, cells were plated (2-10×10^3/well) in 96 well plates and subjected to androgen deprivation for 48 hours with phenol-red free RPMI and 1% charcoal stripped fetal bovine serum (CSF). Cells were then treated with either ethanol, EGF or DHT as a positive control for 48 hours. Peptidomimetics were added 2 hours prior to treatment. Cell proliferation was measured using the MTT colorimetric assay.
as §1, with “Cells” for “In this experiment, cells”, “96-well” for “96 well”, “ethanol” for “ethanol, EGF”, “hours” for “hours.”

COC(=O)c1ccc(NC(=O)c2ccc([N+](=O)[O-])c(OCC(C)C)c2)c(OCC(C)C)c1 [D2]
stability in DMSO [1]: stable in DMSO
DHT-upregulated genes reduced back to baseline [2]: 219 genes
activity on the proliferation of prostate cancer cells (FIGS. 17, 19A-N) ([3]; DHT-induced proliferation, MTT assay, structure-function series): good activity
DHT-induced proliferation of PCa cells ([3]; LNCaP, LAPC4, C4-2, RWPE-1, CWR22v1, VCaP, MDAPCa 2b, pretreatment (100 nM in FIG. 10)): prevented; also recorded: does block
IC50 ([3]; MTT assays, in vitro, read-out: IC50, DHT-mediated proliferation of PCa cells): ~0.04 µM
